This is an account of results in patent US20060223846A1, “Aza-bridged-bicyclic amino acid derivatives as alpha4 integrin antagonists” (priority 2005, published 2006).

The target of one assay is T1, human α4β7 (Homo sapiens, UniProt P13612+P26010).
T1 construct: expressed in transfected cells
T1 sequence (P13612 34-1032): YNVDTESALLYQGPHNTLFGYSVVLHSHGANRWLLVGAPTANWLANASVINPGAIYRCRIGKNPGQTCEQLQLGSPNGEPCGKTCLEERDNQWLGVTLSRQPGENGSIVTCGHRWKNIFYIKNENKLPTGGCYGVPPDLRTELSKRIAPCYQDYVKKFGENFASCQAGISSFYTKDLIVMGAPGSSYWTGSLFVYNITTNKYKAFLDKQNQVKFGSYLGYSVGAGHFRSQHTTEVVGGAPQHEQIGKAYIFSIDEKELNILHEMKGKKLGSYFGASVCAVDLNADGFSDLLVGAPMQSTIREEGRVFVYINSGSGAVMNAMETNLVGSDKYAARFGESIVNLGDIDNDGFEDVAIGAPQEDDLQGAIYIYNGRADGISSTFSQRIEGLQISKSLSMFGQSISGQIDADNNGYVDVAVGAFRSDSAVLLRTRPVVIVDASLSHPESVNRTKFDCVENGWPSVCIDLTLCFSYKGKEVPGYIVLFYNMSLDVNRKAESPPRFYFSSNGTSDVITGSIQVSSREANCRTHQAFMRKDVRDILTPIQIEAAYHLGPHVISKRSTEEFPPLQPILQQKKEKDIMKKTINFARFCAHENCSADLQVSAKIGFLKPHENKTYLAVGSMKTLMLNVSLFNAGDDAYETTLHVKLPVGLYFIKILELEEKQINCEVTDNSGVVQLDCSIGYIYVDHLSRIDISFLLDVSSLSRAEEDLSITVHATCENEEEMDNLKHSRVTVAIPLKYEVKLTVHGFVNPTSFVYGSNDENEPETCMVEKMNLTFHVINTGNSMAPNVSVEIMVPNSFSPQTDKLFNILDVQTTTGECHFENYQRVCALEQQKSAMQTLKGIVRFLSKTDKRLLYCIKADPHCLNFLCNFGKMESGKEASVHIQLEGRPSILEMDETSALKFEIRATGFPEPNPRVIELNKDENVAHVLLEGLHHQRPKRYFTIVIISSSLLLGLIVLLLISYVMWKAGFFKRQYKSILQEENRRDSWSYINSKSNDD
T1 sequence (P26010 20-798): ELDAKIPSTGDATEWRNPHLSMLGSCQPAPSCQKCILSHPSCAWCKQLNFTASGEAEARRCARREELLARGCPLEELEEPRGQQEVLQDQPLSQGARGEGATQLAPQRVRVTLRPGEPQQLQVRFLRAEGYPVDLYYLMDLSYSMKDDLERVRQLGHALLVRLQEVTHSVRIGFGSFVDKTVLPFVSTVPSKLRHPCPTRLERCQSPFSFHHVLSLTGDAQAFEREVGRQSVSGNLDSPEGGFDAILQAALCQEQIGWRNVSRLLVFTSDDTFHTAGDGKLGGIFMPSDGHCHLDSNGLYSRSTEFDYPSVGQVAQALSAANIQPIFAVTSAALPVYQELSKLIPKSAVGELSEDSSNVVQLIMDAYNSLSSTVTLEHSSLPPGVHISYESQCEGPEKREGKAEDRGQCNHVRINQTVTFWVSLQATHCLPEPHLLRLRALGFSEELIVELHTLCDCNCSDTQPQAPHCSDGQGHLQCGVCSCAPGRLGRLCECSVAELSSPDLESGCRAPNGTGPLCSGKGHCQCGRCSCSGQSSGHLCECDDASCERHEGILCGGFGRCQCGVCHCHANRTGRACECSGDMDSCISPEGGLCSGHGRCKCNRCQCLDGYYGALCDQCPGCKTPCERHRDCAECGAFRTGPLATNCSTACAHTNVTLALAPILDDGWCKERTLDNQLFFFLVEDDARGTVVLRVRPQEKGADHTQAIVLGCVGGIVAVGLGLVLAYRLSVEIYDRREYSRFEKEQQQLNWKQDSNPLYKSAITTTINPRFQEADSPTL
In words: α4β7-K562 Cell Adhesion Assay (α4β7 Mediated Adhesion/VCAM-1). The format is cell-based. The settings on record: K562 cells expressing human α4β7 on recombinant hVCAM-1; read-out: α4β7 IC50. In a few lines:
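Calcein AM-labelled K562 cells stably expressing human α4β7 adhered for 1 h at room temperature, with compound, to wells coated with recombinant hVCAM-1 (4.0 μg/mL, pH 9.0) and blocked with PBS/1% BSA. After washing, cells were lysed in 1% SDS/Tris pH 8.0 and fluorescence read at 485/530 nm.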

The target of the next assay is α4β1 (Homo sapiens, UniProt P05556+P13612). As to the kind of experiment: Ramos Cell Adhesion Assay (α4β1 Mediated Adhesion/VCAM-1). The format is cell-based. Conditions: Ramos cells on recombinant hVCAM-1; read-out: α4β1 IC50. More on the design: Ramos cells, (50 μL at 2×10^6/mL) labeled with 5 μM Calcein AM; endogenous in cells; host or cells: Ramos cells. The essentials:
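Ramos cells labeled with 5 μM Calcein AM adhered for 1 h at room temperature to wells coated with recombinant human VCAM-1 (4.0 μg/mL, pH 9.0) in presence of compounds. After washing, cells lysed in SDS buffer; fluorescence read at 485/530 nm.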

Chain of α4β1 (P05556 21-798, one chain of several): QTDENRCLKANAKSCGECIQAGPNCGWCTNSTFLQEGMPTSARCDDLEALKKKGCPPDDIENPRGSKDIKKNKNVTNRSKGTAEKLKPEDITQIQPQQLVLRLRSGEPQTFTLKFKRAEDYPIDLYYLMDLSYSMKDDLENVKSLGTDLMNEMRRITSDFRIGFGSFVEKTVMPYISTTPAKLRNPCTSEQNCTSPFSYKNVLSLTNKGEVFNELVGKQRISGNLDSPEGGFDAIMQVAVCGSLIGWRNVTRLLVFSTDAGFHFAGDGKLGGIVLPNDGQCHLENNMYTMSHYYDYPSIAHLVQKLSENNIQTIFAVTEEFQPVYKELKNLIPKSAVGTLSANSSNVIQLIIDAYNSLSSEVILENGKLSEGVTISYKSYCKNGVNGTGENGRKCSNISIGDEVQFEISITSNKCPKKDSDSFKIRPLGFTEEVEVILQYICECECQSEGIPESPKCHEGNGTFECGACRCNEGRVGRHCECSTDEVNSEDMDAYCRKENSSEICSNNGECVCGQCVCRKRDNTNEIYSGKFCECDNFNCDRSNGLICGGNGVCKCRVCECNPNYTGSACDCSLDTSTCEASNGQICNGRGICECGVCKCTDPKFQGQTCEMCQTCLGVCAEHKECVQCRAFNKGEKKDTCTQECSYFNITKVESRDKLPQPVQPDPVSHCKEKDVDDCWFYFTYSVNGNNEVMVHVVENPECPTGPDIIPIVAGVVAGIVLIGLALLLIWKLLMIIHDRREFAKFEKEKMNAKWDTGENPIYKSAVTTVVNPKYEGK

Turning to `CC(C)(C)CCN1C2CCC(CC2)[C@H]1C(=O)N[C@@H](Cc1ccc(NC(=O)c2c(Cl)cncc2Cl)cc1)C(=O)O` [Cpd 16, 3-{4-[(3,5-dichloro-pyridine-4-carbonyl)-amino]-phenyl}-2-{[2-(3,3-dimethyl-butyl)-2-aza-bicyclo[2.2.2]octane-3-carbonyl]-amino}-propionic acid], the IC50 (as a rule, the concentration that inhibits the measured activity by half) on human α4β7 was 0.094 µM; on α4β1, 0.047 µM.

With `O=C(Nc1ccc(CC(NC(=O)C2C3CCC(CC3)N2C(=O)Cc2ccsc2)C(=O)O)cc1)c1c(Cl)cncc1Cl` (stereo not shown) [Cpd 3], the IC50 is 0.041 µM on human α4β7 and 0.043 µM at α4β1.
